Results as given in the NIST ThermoML archive (doi:10.1016/j.jct.2007.10.006).
Numbers after ± are expanded uncertainties.

Conditions: Crystal; thermal analyzer

Oc1ccc(/C=C/c2cc(O)cc(O)c2)cc1 [5-[(1E)-2-(4-hydroxyphenyl)-ethenyl]-1,3-benzenediol]
Normal melting temperature: 268.1 ± 1 °C
